According to PMC4650712, “Conversion of cell-survival activity of Akt into apoptotic death of cancer cells by two mutations on the BIM BH3 domain” (Cell Death & Disease, 2015):

Legend:
[1] = test system: PC3 cells; assay: Immunofluorescence of cytochrome c, PC3 cells; type: cell-based, human
Experimental: (§1) For intracellular delivery, BH3BIM(I155R/E158S) was fused to the C-terminus of the cell penetration peptide (CPP) derived from HIV Tat (Figure 1). PC3 and HCT116 cells were treated with the CPP-BH3BIM(I155R/E158S) peptide, and the MTT assay was performed. […] We then measured the activity of Akt by examining the phosphorylation state of itself and its substrate GSK3β. […] To elaborate this observation, we examined the effect of the fusion peptide in three different human lung cancer cell lines. […] We then assessed the effect of the Akt activity by ectopically expressing wild-type Akt (Akt-WT), constitutively active Akt (myristoylated Akt; Akt-Myr) or kinase-dead-Akt (Akt-KD). […] The kinase activities of the three Akt versions were confirmed by examining GSK3β phosphorylation (Figures 6f and p-GSK3β). To know whether CPP-BH3BIM(I155R/E158S)-induced cell death might depend on BAX, the HCT116 BAX^+/− and the HCT116 BAX^−/− cell lines were transfected with an expression vector encoding AKT-Myr and the cells were treated with the peptide. […] The survival of the BAX^−/− cells despite the CPP-BH3BIM(I155R/E158S) treatment could be explained by an observation that the designed peptide only weakly binds to MCL-1 (not shown), which is a major inhibitor of BAK.[35] Presumably, both MCL-1 and BAK are expressed in these cells.[36]
Figure 6 CPP-fused BH3BIM(I155R/E158S) peptide induces death of PC3 cells. (a) Cell viability evaluated by the MTT assay 72 h after treatment of the peptide (0, 10 or 20 μM). N.S indicates non-significance. Error bars indicate S.D. (n=3). (b) The immunofluorescence images of PC3 and HCT116 cells treated with 20-μM CPP-BH3BIM(I155R/E158S). Cytochrome c (green) was detected by anti-cytochrome c antibody and FITC-conjugated secondary antibody, and the nucleus was stained by DAPI. The large boxes are the enlargement of the small boxes, highlighting the cytochrome c staining. (c) Western blot (WB) analysis to examine the effect of CPP-BH3BIM(I155R/E158S) on the phosphorylation of Akt (at Ser473) and GSK3β (at Ser9). PC3 cells were incubated with the peptide for 6 h at the indicated concentration. t-Akt and t-GSK3β stand for total Akt and GSK3β, respectively. (d) MTT assay to examine the cytotoxic effect of CPP-BH3BIM(I155R/E158S) on lung cancer cell lines. […] (e) Promotion of CPP-BH3BIM(I155R/E158S)-induced death of HCT116 cells by Akt. Cells were transfected with the indicated vectors for 24 h and incubated with the peptide for 72 h. Cell death was promoted by Akt-WT and Akt-Myr, but not by Akt-KD. (f) Phosphorylation of GSK3β (p-GSK3β) by Akt-WT and Akt-Myr, but not by Akt-KD. […]
Figure 7 The BH3BIM(I155R/E158S) sequence induces phosphorylation-dependent cell death. […] Percent of live cells were determined by average of 200 cells in three independent experiments. […]

[2] = test system: HCT116 cells; assay: Immunofluorescence of cytochrome c, HCT116 cells; type: cell-based, human; settings: 20 μM
Experimental: (§2) For intracellular delivery, BH3BIM(I155R/E158S) was fused to the C-terminus of the cell penetration peptide (CPP) derived from HIV Tat (Figure 1). PC3 and HCT116 cells were treated with the CPP-BH3BIM(I155R/E158S) peptide, and the MTT assay was performed. […] We then measured the activity of Akt by examining the phosphorylation state of itself and its substrate GSK3β. […] To elaborate this observation, we examined the effect of the fusion peptide in three different human lung cancer cell lines. […] We then assessed the effect of the Akt activity by ectopically expressing wild-type Akt (Akt-WT), constitutively active Akt (myristoylated Akt; Akt-Myr) or kinase-dead-Akt (Akt-KD). […] The kinase activities of the three Akt versions were confirmed by examining GSK3β phosphorylation (Figures 6f and p-GSK3β). […]
(§3) Figure 6 CPP-fused BH3BIM(I155R/E158S) peptide induces death of PC3 cells. (a) Cell viability evaluated by the MTT assay 72 h after treatment of the peptide (0, 10 or 20 μM). […] Cytochrome c (green) was detected by anti-cytochrome c antibody and FITC-conjugated secondary antibody, and the nucleus was stained by DAPI. […]
Cells were seeded on a cover glass and incubated with the CCP-fused BH3BIM(I155R/E158S) peptide. […] The immunofluorescence signal was detected by fluorescence microscopy (Zeiss, Oberkochen, Germany).

[3] = test system: Akt; assay: Western blot of Akt phosphorylation (Ser473) in PC3 cells; type: cell-based; settings: 6 h
Experimental: as §2, with “p-GSK3β). To know whether CPP-BH3BIM(I155R/E158S)-induced cell death might depend on BAX, the HCT116 BAX^+/− and the HCT116 BAX^−/− cell lines were transfected with an expression vector encoding AKT-Myr and the cells were treated with the peptide.” for “p-GSK3β).”
as §3

[4] = test system: H1299; assay: MTT assay, H1299 lung cancer cells; type: cell-based, human; settings: PTEN-silenced
Experimental: as §2, with “p-GSK3β). To know whether CPP-BH3BIM(I155R/E158S)-induced cell death might depend on BAX, the HCT116 BAX^+/− and the HCT116 BAX^−/− cell lines were transfected with an expression vector encoding AKT-Myr and the cells were treated with the peptide.” for “p-GSK3β).”
as §3

[5] = test system: A549; assay: MTT assay, A549 lung cancer cells; type: cell-based, human; settings: K-Ras mutation
Experimental: as §2, with “p-GSK3β). To know whether CPP-BH3BIM(I155R/E158S)-induced cell death might depend on BAX, the HCT116 BAX^+/− and the HCT116 BAX^−/− cell lines were transfected with an expression vector encoding AKT-Myr and the cells were treated with the peptide.” for “p-GSK3β).”
as §3

[6] = test system: H23; assay: MTT assay, H23 lung cancer cells; type: cell-based, human; settings: wild-type K-Ras, normal Akt activity
Experimental: as §2, with “p-GSK3β). To know whether CPP-BH3BIM(I155R/E158S)-induced cell death might depend on BAX, the HCT116 BAX^+/− and the HCT116 BAX^−/− cell lines were transfected with an expression vector encoding AKT-Myr and the cells were treated with the peptide.” for “p-GSK3β).”
as §3

[7] = test system: HCT116 cells; assay: Death of HCT116 cells with ectopic Akt; type: cell-based; settings: peptide 72 h
Experimental: as §1
Figure 6 CPP-fused BH3BIM(I155R/E158S) peptide induces death of PC3 cells. (a) Cell viability evaluated by the MTT assay 72 h after treatment of the peptide (0, 10 or 20 μM). N.S indicates non-significance. Error bars indicate S.D. (n=3). (b) The immunofluorescence images of PC3 and HCT116 cells treated with 20-μM CPP-BH3BIM(I155R/E158S). Cytochrome c (green) was detected by anti-cytochrome c antibody and FITC-conjugated secondary antibody, and the nucleus was stained by DAPI. The large boxes are the enlargement of the small boxes, highlighting the cytochrome c staining. (c) Western blot (WB) analysis to examine the effect of CPP-BH3BIM(I155R/E158S) on the phosphorylation of Akt (at Ser473) and GSK3β (at Ser9). […]

[8] = test system: PC3 cells; assay: Cell fractionation: cytochrome c release from mitochondria; type: cell-based; settings: 6 h
Experimental: Figure 7 The BH3BIM(I155R/E158S) sequence induces phosphorylation-dependent cell death. (a) Cell viability by the MTT assay. One day after transfection of PC3 cells with an empty vector (EV) or a PTEN-expressing vector (PTEN), cells were treated for 12 h with AuNP-anti-GST DNA aptamer composite coated with the indicated BH3BIM peptide fused to GST (5 μM). (b) Intracellular delivery of the GST-fused peptides. Cells were washed with PBS three times to remove proteins attached to the plasma membrane. M1 stands for BH3BIM (E158S), M2 for BH3BIM (I155R/E158A), and M3 for BH3BIM (I155R/E158S). (c) Cell viability by trypan blue dye exclusion assay. To confirm the effect in (a), cells were incubated with indicated materials for 24 h and stained with trypan blue for 10 min. Percent of live cells were determined by average of 200 cells in three independent experiments. (d) Immunostaining of cytochrome c in PC3 cells. Cells were transfected (EV or PTEN), and incubated with the CPP-BH3BIM(I155R/E158S) peptide (CPP-peptide) for 48 h. […] Cells were incubated with CPP-BH3BIM(I155R/E158S) for 6 h and subjected to cell fractionation. […] (g) HEK293 cells were treated in the same way as in (a). Viable cells were evaluated 48 h after the treatment by the MTT assay. Error bars indicate the S.D. (n=3) […]

[9] = test system: PARP; assay: PARP cleavage; type: cell-based; settings: PTEN-transfected; indicator of caspase activation
Experimental: Figure 7 The BH3BIM(I155R/E158S) sequence induces phosphorylation-dependent cell death. (a) Cell viability by the MTT assay. One day after transfection of PC3 cells with an empty vector (EV) or a PTEN-expressing vector (PTEN), cells were treated for 12 h with AuNP-anti-GST DNA aptamer composite coated with the indicated BH3BIM peptide fused to GST (5 μM). (b) Intracellular delivery of the GST-fused peptides. Cells were washed with PBS three times to remove proteins attached to the plasma membrane. M1 stands for BH3BIM (E158S), M2 for BH3BIM (I155R/E158A), and M3 for BH3BIM (I155R/E158S). (c) Cell viability by trypan blue dye exclusion assay. To confirm the effect in (a), cells were incubated with indicated materials for 24 h and stained with trypan blue for 10 min. Percent of live cells were determined by average of 200 cells in three independent experiments. (d) Immunostaining of cytochrome c in PC3 cells. Cells were transfected (EV or PTEN), and incubated with the CPP-BH3BIM(I155R/E158S) peptide (CPP-peptide) for 48 h. […] (e) PTEN blocked the cytochrome c release from mitochondria. Cells were incubated with CPP-BH3BIM(I155R/E158S) for 6 h and subjected to cell fractionation. […] (g) HEK293 cells were treated in the same way as in (a). Viable cells were evaluated 48 h after the treatment by the MTT assay. Error bars indicate the S.D. (n=3) […]

[10] = test system: HEK293 cells; assay: MTT assay, HEK293 cells; type: cell-based; settings: AuNP-protein or CPP-peptide
Experimental: Figure 7 The BH3BIM(I155R/E158S) sequence induces phosphorylation-dependent cell death. (a) Cell viability by the MTT assay. One day after transfection of PC3 cells with an empty vector (EV) or a PTEN-expressing vector (PTEN), cells were treated for 12 h with AuNP-anti-GST DNA aptamer composite coated with the indicated BH3BIM peptide fused to GST (5 μM). (b) Intracellular delivery of the GST-fused peptides. Cells were washed with PBS three times to remove proteins attached to the plasma membrane. M1 stands for BH3BIM (E158S), M2 for BH3BIM (I155R/E158A), and M3 for BH3BIM (I155R/E158S). (c) Cell viability by trypan blue dye exclusion assay. To confirm the effect in (a), cells were incubated with indicated materials for 24 h and stained with trypan blue for 10 min. Percent of live cells were determined by average of 200 cells in three independent experiments. (d) Immunostaining of cytochrome c in PC3 cells. […] Viable cells were evaluated 48 h after the treatment by the MTT assay. […]
PC3 and HEK293 cells were incubated with the GST-BH3BIM(I155R/E158S) protein conjugated to AuNP-anti-GST DNA aptamer composite[37] after transfection with a PTEN expression vector (pCMV Flag WT-PTEN; addgene plasmid #22231). […] After removing excess solution and washing with PBS, the precipitated materials were dissolved in […] of dimethyl sulfoxide and quantified by measuring the absorbance at 540 nm. […]

[11] = test system: PC3 cells; assay: MTT viability assay, PC3 cells, CPP-fused peptide; settings: 72 h, 0, 10 or 20 μM, n=3, PTEN-null, elevated Akt activity
[12] = test system: GSK3β; assay: Western blot of GSK3β phosphorylation (Ser9) in PC3 cells; settings: 6 h

With “YGRRARRRARREIWIAQELRRRGDSFNAYYAR [CPP-BH3BIM(I155R/E158S)]” the apoptotic cell death ([1]; 20 μM, immunofluorescence) was “underwent apoptotic cell death”, the cytochrome c distribution ([1]; 20 μM, immunofluorescence, untransfected PC3) was “diffused in the cytoplasm and gradually accumulated in the nucleus” and the “cytochrome c staining pattern” value ([1]; EV-transfected PC3, 48 h) was “diffused nuclear pattern”. The “cytochrome c staining pattern” value ([1]; PTEN-expressing PC3, 48 h) was “Cytoplasmic puncta staining pattern”, the cytochrome c distribution [2] was “retained the puncta staining pattern” and the “phosphorylation of Akt (Ser473)” value [3] was “not Akt itself”. The “sensitivity to the peptide” value [4] was “exhibited sensitivity to the peptide”, the “response to the peptide” value [5] was “moderate response” and the “response to the peptide” value [6] was “did not respond to this peptide”. For the same sequence, the “promotion of peptide-induced cell death” value ([7]; Akt-KD transfected 24 h) was “did not show an additive effect”, the “promotion of peptide-induced cell death” value ([7]; Akt-Myr transfected 24 h) was “promoted death of HCT116 cells” and the “promotion of peptide-induced cell death” value ([7]; Akt-WT transfected 24 h) was “promoted death of HCT116 cells”. The cytoplasmic cytochrome c [8] was “Increase of cytoplasmic cytochrome c”, the “increase of cytoplasmic cytochrome c with PTEN expression” value ([8]; PTEN-transfected) was “obviously blocked by PTEN expression” and the “PARP cleavage with PTEN” value [9] was “PTEN also blocked PARP cleavage”. The “viability of HEK293 cells (Supplementary Figure S6)” value [10] was “slightly increased cell viability without a statistical significance”, the cytotoxic activity [11] was “strong cytotoxic activity” and the “phosphorylation of GSK3β (Ser9)” value ([12]; PC3 cells, western blot) was “reduced the phosphorylation of GSK3β”. The p-S9-GSK3β ([12]; PTEN experiment (Figure 7e)) was “Reduction of p-S9-GSK3β”.
